Experimental data from the supplement of paper PMC10307832.

Tests used:
Experiment in all cases: relative viability (nuclei count vs DMSO), 5 days (fraction); higher = more cells survive
R406 + Pemetrexed = compound: COc1cc(Nc2ncc(F)c(Nc3ccc4c(n3)NC(=O)C(C)(C)O4)n2)cc(OC)c1OC [R406] + Nc1nc2[nH]cc(CCc3ccc(C(=O)N[C@@H](CCC(=O)O)C(=O)O)cc3)c2c(=O)[nH]1 [Pemetrexed] (partner 0.2 µM)
Procedure, shortened: (§1)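 Relative viability divides the nuclei count in treated wells by that in vehicle wells. Lung cancer cell lines were seeded in 1536-well plates, dosed by pin tool the next day, and fixed and stained after 5 days in one step with final 0.05% Triton X-100, 1% formaldehyde and 1 ug/ml Hoechst. Dosing was a single drug or a fixed anchor-drug dose plus five library-drug doses (not always all listed) in √10 steps, and values are medians of duplicate plates imaged at 4×.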

R406 + Bortezomib = compound: COc1cc(Nc2ncc(F)c(Nc3ccc4c(n3)NC(=O)C(C)(C)O4)n2)cc(OC)c1OC [R406] + CC(C)C[C@H](NC(=O)[C@H](Cc1ccccc1)NC(=O)c1cnccn1)B(O)O [Bortezomib] (partner 0.002 µM)
Procedure, shortened: as §1

Daporinad + Tozasertib = compound: O=C(/C=C/c1cccnc1)NCCCCC1CCN(C(=O)c2ccccc2)CC1 [Daporinad] + Cc1cc(Nc2cc(N3CCN(C)CC3)nc(Sc3ccc(NC(=O)C4CC4)cc3)n2)n[nH]1 [Tozasertib] (partner 0.1 µM)
Procedure, shortened: as §1

R406 + Luminespib = compound: COc1cc(Nc2ncc(F)c(Nc3ccc4c(n3)NC(=O)C(C)(C)O4)n2)cc(OC)c1OC [R406] + CCNC(=O)c1noc(-c2cc(C(C)C)c(O)cc2O)c1-c1ccc(CN2CCOCC2)cc1 [Luminespib] (partner 0.01 µM)
Procedure, shortened: as §1

## UMC-11
R406 + Pemetrexed; first compound 0.08 µM
  relative viability: 0.764
R406 + Pemetrexed; first compound 0.253 µM
  relative viability: 0.808
R406 + Pemetrexed; first compound 0.8 µM
  relative viability: 0.889
R406 + Pemetrexed; first compound 2.53 µM
  relative viability: 0.609
R406 + Pemetrexed; first compound 8 µM
  relative viability: 0.304
R406 + Bortezomib; first compound 0.08 µM
  relative viability: 0.78
R406 + Bortezomib; first compound 0.253 µM
  relative viability: 0.996
R406 + Bortezomib; first compound 0.8 µM
  relative viability: 0.99
R406 + Bortezomib; first compound 2.53 µM
  relative viability: 0.251
R406 + Bortezomib; first compound 8 µM
  relative viability: 0.342
Daporinad + Tozasertib; first compound 0.0005 µM
  relative viability: 0.21
Daporinad + Tozasertib; first compound 0.001581 µM
  relative viability: 0.208
Daporinad + Tozasertib; first compound 0.005 µM
  relative viability: 0.207
Daporinad + Tozasertib; first compound 0.01581 µM
  relative viability: 0.2
R406 + Luminespib; first compound 0.08 µM
  relative viability: 1.09
R406 + Luminespib; first compound 0.253 µM
  relative viability: 1.07
R406 + Luminespib; first compound 0.8 µM
  relative viability: 1.12
R406 + Luminespib; first compound 2.53 µM
  relative viability: 0.835
R406 + Luminespib; first compound 8 µM
  relative viability: 0.418
